# In patent US9353152B2, “Induction of the mitochondrial permeability transition” (NewSouth Innovations Pty Limited, priority 2002, dated 2016):
# Entries after “also recorded” stand apart in the source; their conditions may differ.
# Legend:
# BAE cells [1] = assay type: cell-based, bovine
# MPTP = molecular target: T1, MPTP (Rattus norvegicus, UniProt Q09073); test: Mitochondria swelling assay (MPT induction, decrease in light scattering at 520 nm); assay type: biochemical; settings: GSAO 25-200 μM; GSAA, GSCA 100 μM; 60 min
# T1 construct: Mitochondria were isolated from the livers of ˜250 g male Wistar rats; from tissue; host or cells: rat liver mitochondria (male Wistar rats)
# T1 sequence (Q09073 2-298 limits assumed): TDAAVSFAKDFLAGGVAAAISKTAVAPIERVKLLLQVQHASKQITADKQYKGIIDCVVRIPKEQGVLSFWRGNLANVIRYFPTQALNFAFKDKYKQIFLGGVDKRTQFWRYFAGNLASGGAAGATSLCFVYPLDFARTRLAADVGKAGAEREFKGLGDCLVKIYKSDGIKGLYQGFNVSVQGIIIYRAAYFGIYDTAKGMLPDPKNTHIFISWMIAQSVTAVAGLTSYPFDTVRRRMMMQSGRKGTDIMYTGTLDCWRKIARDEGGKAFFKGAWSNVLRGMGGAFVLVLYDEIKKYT
# BxPC-3 tumours = test: Primary tumour growth assay; assay type: in vivo, SCID mice; settings: 10 mg/kg/day s.c., all experiments (BxPC-3, HT1080, LLC)
# Method: (§1) Female 7 to 9 week old SCID or C57Bl6/J mice were used (Massachusetts General Hospital, Boston, Mass.). Mice were held in groups of 3 to 5 at a 12 hour day and night cycle and were given animal chow and water ad libidum. SCID or C57Bl6/J mice were anaesthetised by inhalation of isoflurane, the dorsal skin shaved and cleaned with ethanol, and a suspension of 2.5×10^6 BxPC-3, HT1080 or LLC cells in 0.2 mL of PBS, or saline for LLC cells, was injected S.C. in the proximal midline. LLC cells were prepared according to O'Reilly et al. (1997). Tumour volume was calculated using the relationship, a·b^2·0.52, where a is the longest and b the shortest diameter.
# BAE cells [2] = test: Cell viability assay, attached cells (methylene blue), proliferating or growth-quiescent cells; assay type: cell-based, bovine
# Method: BAE or HMEC-1 cells were seeded at a density of 10^4 cells per cell into 96 well plates and allowed to adhere overnight and then treated as indicated.
# CAM angiogenesis = test: Chick chorioallantoic membrane (CAM) angiogenesis assay; assay type: in vivo; settings: 5, 10 or 50 μg per pellet, 48 h
# Method: Fertilised 3 day-old white Leghorn eggs (Spafas, Norwich, Conn.) were cracked, the embryos with intact yolks placed in 20×100 mm petri dishes and incubated for 3 days at 37° C. and 3% CO2 (Folkman, 1985). Methylcellulose (Fisher Scientific, Fair Lawn, N.J.) discs containing 5, 10 or 50 μg of either GSAA or GSAO were then applied to the CAM of individual embryos and incubated for 48 h at 37° C. and 3% CO2. The discs were made by desiccation of GSAA or GSAO in 10 μl of 0.45% methycellulose on teflon rods. The CAMs were observed using a stereomicroscope and scored for no obvious affect or inhibition of CAM angiogenesis as defined by avascular zones. On some occasions CAM blood vessels were injected with India ink and photographed.
# [3] = Tolerability in tumour-bearing mice; assay type: in vivo, SCID or C57Bl6/J mice
# Method: as §1
smiles,measurement,setting,value
"N[C@@H](CCC(=O)N[C@@H](CSCC(=O)Nc1ccc([As](=O)(O)O)cc1)C(=O)NCC(=O)O)C(=O)O [GSAA, 4-(N—((S-glutathionyl)acetyl)amino)-benzenearsonic acid, reference compound]",effect on O2^− or H2O2 levels,BAE cells [1],no effect
same,swelling of isolated rat liver mitochondria,MPTP,without effect
same,inhibition of the rate of tumour growth compared to vehicle alone,BxPC-3 tumours,< 20%
same,effect on the viability of proliferating BAE cells,BAE cells [2],no significant effect
same,inhibition of CAM angiogenesis (avascular zones),CAM angiogenesis,did not inhibit CAM angiogenesis; also recorded: no affects
same,adverse affects of administration,[3]; 10 mg/kg/day s.c.,no apparent adverse affects
same,"morphological changes in the heart, lungs, liver, kidneys, and spleen",[3]; 10 mg/kg/day s.c.,no morphological changes
same,average mice weights over the course of the experiments,[3]; GSAO versus GSAA treatment groups,the same
